According to the NIST ThermoML archive (doi:10.1016/j.jct.2014.03.022):

Assay: xn = mol fraction of the nth substance listed
Settings: for surface tension liquid-gas: Wilhelmy plate method; for viscosity: 101.3 kPa, Liquid, Concentric cylinders viscometry

CCCCCCCCCCO [decan-1-ol] + CN(C)C=O
Settings | surface tension liquid-gas, 298.15 K [mN/m] | surface tension liquid-gas, 303.15 K [mN/m] | surface tension liquid-gas, 308.15 K [mN/m] | surface tension liquid-gas, 313.15 K [mN/m] | viscosity, 298.15 K [mPa·s] | viscosity, 303.15 K [mPa·s] | viscosity, 308.15 K [mPa·s] | viscosity, 313.15 K [mPa·s]
x2 = 0 | 28.35 | 27.29 | 26.23 | 25.17 | 11.83 | 9.754 | 8.135 | 6.842
x2 = 0.2361 | 28.83 | 27.74 | 26.67 | 25.61 | 4.984 | 3.776 | 2.992 | 2.357
x2 = 0.4193 | 29.21 | 28.08 | 26.99 | 25.92 | 2.622 | 1.816 | 1.359 | 0.9811
x2 = 0.5688 | 29.6 | 28.43 | 27.31 | 26.23 | 1.623 | 1.092 | 0.7935 | 0.5801
x2 = 0.6724 | 30.14 | 28.95 | 27.82 | 26.74 | 1.238 | 0.8423 | 0.6257 | 0.47
x2 = 0.7496 | 30.78 | 29.6 | 28.46 | 27.38 | 1.03 | 0.7268 | 0.5631 | 0.443
x2 = 0.8185 | 31.61 | 30.43 | 29.3 | 28.23 | 0.9299 | 0.7011 | 0.5754 | 0.479
x2 = 0.8748 | 32.48 | 31.32 | 30.2 | 29.15 | 0.8732 | 0.7131 | 0.6216 | 0.5385
x2 = 0.923 | 33.41 | 32.27 | 31.15 | 30.12 | 0.8501 | 0.7459 | 0.6802 | 0.6027
x2 = 0.9632 | 34.3 | 33.18 | 32.07 | 31.05 | 0.8317 | 0.7627 | 0.7103 | 0.6468

CCCCCCCCCO [nonan-1-ol] + CN(C)C=O
Settings | surface tension liquid-gas, 298.15 K [mN/m] | surface tension liquid-gas, 303.15 K [mN/m] | surface tension liquid-gas, 308.15 K [mN/m] | surface tension liquid-gas, 313.15 K [mN/m] | viscosity, 298.15 K [mPa·s] | viscosity, 303.15 K [mPa·s] | viscosity, 308.15 K [mPa·s] | viscosity, 313.15 K [mPa·s]
x2 = 0 | 27.58 | 26.53 | 25.49 | 24.44 | 9.715 | 7.927 | 6.664 | 5.645
x2 = 0.2201 | 28.12 | 27.04 | 25.98 | 24.92 | 4.766 | 3.633 | 2.965 | 2.416
x2 = 0.3969 | 28.54 | 27.42 | 26.33 | 25.27 | 2.715 | 1.932 | 1.532 | 1.196
x2 = 0.5458 | 28.97 | 27.81 | 26.7 | 25.62 | 1.77 | 1.213 | 0.9531 | 0.7287
x2 = 0.6515 | 29.58 | 28.39 | 27.27 | 26.18 | 1.373 | 0.9494 | 0.7597 | 0.5913
x2 = 0.7321 | 30.3 | 29.11 | 27.98 | 26.9 | 1.156 | 0.8443 | 0.6817 | 0.5692
x2 = 0.8042 | 31.21 | 30.03 | 28.9 | 27.83 | 1.022 | 0.7978 | 0.6695 | 0.5762
x2 = 0.8644 | 32.19 | 31.02 | 29.9 | 28.85 | 0.9434 | 0.7834 | 0.6881 | 0.6071
x2 = 0.9168 | 33.23 | 32.08 | 30.97 | 29.93 | 0.8898 | 0.7837 | 0.7189 | 0.6468
x2 = 0.9596 | 34.2 | 33.07 | 31.97 | 30.95 | 0.8529 | 0.7764 | 0.727 | 0.6663

CCCCCCCCO [octan-1-ol] + CN(C)C=O
Settings | surface tension liquid-gas, 298.15 K [mN/m] | surface tension liquid-gas, 303.15 K [mN/m] | surface tension liquid-gas, 308.15 K [mN/m] | surface tension liquid-gas, 313.15 K [mN/m] | viscosity, 298.15 K [mPa·s] | viscosity, 303.15 K [mPa·s] | viscosity, 308.15 K [mPa·s] | viscosity, 313.15 K [mPa·s]
x2 = 0 | 27.47 | 26.42 | 25.41 | 24.38 | 7.661 | 6.402 | 5.425 | 4.628
x2 = 0.2198 | 28.07 | 26.98 | 25.95 | 24.91 | 4.082 | 3.243 | 2.678 | 2.2
x2 = 0.3728 | 28.37 | 27.25 | 26.18 | 25.13 | 2.636 | 2.012 | 1.646 | 1.35
x2 = 0.5208 | 28.77 | 27.6 | 26.5 | 25.43 | 1.794 | 1.355 | 1.106 | 0.9143
x2 = 0.6277 | 29.36 | 28.17 | 27.05 | 25.97 | 1.41 | 1.089 | 0.8992 | 0.7523
x2 = 0.7118 | 30.1 | 28.9 | 27.77 | 26.7 | 1.193 | 0.9412 | 0.804 | 0.7006
x2 = 0.7877 | 31.04 | 29.85 | 28.72 | 27.66 | 1.052 | 0.8817 | 0.765 | 0.6768
x2 = 0.8519 | 32.05 | 30.88 | 29.76 | 28.7 | 0.9693 | 0.8339 | 0.7497 | 0.6694
x2 = 0.9085 | 33.13 | 31.98 | 30.87 | 29.84 | 0.9042 | 0.8153 | 0.7484 | 0.6782
x2 = 0.9556 | 34.15 | 33.03 | 31.92 | 30.9 | 0.8603 | 0.7921 | 0.7395 | 0.6802
